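48-hour exposure; five concentrations; linearly interpolated endpoints. GI50 = concentration required for 50% inhibition of growth.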 Active and inactive are the calls of the source. Cut-off read from the data, not from the text of the source: active = GI50 up to about 1.1 µM and inactive = higher. Where a SMILES comes first, the peptide text is derived from it. [ ]: non-standard residue; d: D form. The star is where a group is joined. ξ: configuration not given here. ξF = NC(Cc1ccccc1)C(=O)O; Cbz = O=C(OCc1ccccc1)*; Aib = CC(C)(N)C(=O)O
Columns and labels:
Experiment in all cases: NCI-60 cell line screen, 48 h
[1] = system: A549
[2] = system: CCRF-CEM
[3] = system: DU-145
[4] = system: HCT-15
[5] = system: HOP-92
[6] = system: Hs-578T
[7] = system: LOX IMVI
[8] = system: M14
[9] = system: MDA-MB-435
[10] = system: PC-3
[11] = system: SK-MEL-5
[12] = system: SW-620
[13] = system: TK-10
[14] = system: UACC-257
[15] = system: A498

Compound | GI50 [1] | GI50 [2] | GI50 [3] | GI50 [4] [µM] | GI50 [5] | GI50 [6] | GI50 [7] | GI50 [8] | GI50 [9] | GI50 [10] | GI50 [11] | GI50 [12] | GI50 [13] | GI50 [14] | GI50 [15]
CC(C)CC(NC(=O)C(O)C(N)Cc1ccccc1)C(=O)O (stereo not given) | > 100 µM (inactive) | > 100 µM (inactive) | > 100 µM (inactive) | > 100 | > 100 µM (inactive) | > 100 µM (inactive) | > 100 µM (inactive) | > 100 µM (inactive) | > 100 µM (inactive) | > 100 µM (inactive) | > 100 µM (inactive) | > 100 µM (inactive) | > 100 µM (inactive) | > 100 µM (inactive) | 
CCOP(=O)(CCCC(O)CNc1nc(N)nc(Cl)c1/N=N/c1ccc(Cl)cc1)OCC (stereo not given) | 10.6 µM (inactive) | 3.21 µM (inactive) | 6.14 µM (inactive) | 6.28 | 5.6 µM (inactive) | 4.85 µM (inactive) | 3.75 µM (inactive) |  | 5.85 µM (inactive) | 4.86 µM (inactive) | 4.66 µM (inactive) | 12.3 µM (inactive) | 3.67 µM (inactive) | 5.38 µM (inactive) | 6.7 µM (inactive)
COC(=O)C(C)(C)NC(=O)C(Cc1ccccc1)NC(=O)C(C)(C)NC(=O)OCc1ccccc1 (stereo not given) (Cbz-[Aib]-[ξF]-[Aib]-OMe) | > 100 µM (inactive) | > 100 µM (inactive) | > 100 µM (inactive) | > 100 |  |  | > 100 µM (inactive) | > 100 µM (inactive) | > 100 µM (inactive) | > 100 µM (inactive) | > 100 µM (inactive) | > 100 µM (inactive) | > 100 µM (inactive) | > 100 µM (inactive) | 24.3 µM (inactive)
CCSc1ncnc2c(C3OC(CO)C(O)C3O)nsc12 (stereo not given) | > 100 µM (inactive) | > 100 µM (inactive) | > 100 µM (inactive) | > 100 | > 100 µM (inactive) | > 100 µM (inactive) | > 100 µM (inactive) | > 100 µM (inactive) | > 100 µM (inactive) | > 100 µM (inactive) | > 100 µM (inactive) | > 100 µM (inactive) |  |  | > 100 µM (inactive)
Fc1ccccc1C1SCc2nc3cc4ccccc4cc3n21 (stereo not given) | 64.9 µM (inactive) | > 100 µM (inactive) | 60.8 µM (inactive) | 94.8 |  | 26.5 µM (inactive) |  | > 100 µM (inactive) | > 100 µM (inactive) | 78.3 µM (inactive) | 71.1 µM (inactive) | 85.7 µM (inactive) | 63.8 µM (inactive) | 61.1 µM (inactive) | 
NC(=O)CC(/N=C1\C(=O)OC(C(O)CO)\C1=N/C(CC(N)=O)C(=O)O)C(=O)O (stereo not given) | > 100 µM (inactive) | > 100 µM (inactive) | > 100 µM (inactive) | > 100 | > 100 µM (inactive) | > 100 µM (inactive) |  | > 100 µM (inactive) | > 100 µM (inactive) | > 100 µM (inactive) | > 100 µM (inactive) | > 100 µM (inactive) | > 100 µM (inactive) | > 100 µM (inactive) | > 100 µM (inactive)
Cc1cc(NC2=NCCO2)c2c(c1C)CCCC2 | 29.6 µM (inactive) | 19 µM (inactive) | 27.5 µM (inactive) | 16.7 | 0.906 µM (active) | 10.8 µM (inactive) |  | 11.1 µM (inactive) | 14.4 µM (inactive) |  | 15.7 µM (inactive) | 27.1 µM (inactive) | 33.7 µM (inactive) | 9.33 µM (inactive) | 13.6 µM (inactive)
CC1(C)N=C(C2CCCN2C(=O)OCc2ccccc2)OC1=O (stereo not given) | > 100 µM (inactive) | > 100 µM (inactive) | > 100 µM (inactive) | > 100 |  | > 100 µM (inactive) | > 100 µM (inactive) | > 100 µM (inactive) | > 100 µM (inactive) | > 100 µM (inactive) | > 100 µM (inactive) | > 100 µM (inactive) | > 100 µM (inactive) | > 100 µM (inactive) | > 100 µM (inactive)
Brc1sc(Br)c2c1[C@H](Br)C[C@@H]2Br | 30 µM (inactive) | 31.1 µM (inactive) | 24.3 µM (inactive) | 28.4 | 21.5 µM (inactive) | 26.3 µM (inactive) | 17.4 µM (inactive) | 29.2 µM (inactive) | 35.5 µM (inactive) |  | 57.1 µM (inactive) | 38.7 µM (inactive) | > 100 µM (inactive) | 40.2 µM (inactive) | 40.3 µM (inactive)
C=CC(Br)(CBr)CCC(Cl)C(C)C (stereo not given) | 4.69 µM (inactive) | 0.364 µM (active) | 2.72 µM (inactive) |  | 2.04 µM (inactive) | 2.58 µM (inactive) | 1.15 µM (inactive) | 1.7 µM (inactive) | 1.82 µM (inactive) | 3.45 µM (inactive) | 1.85 µM (inactive) | 1.69 µM (inactive) | 1.88 µM (inactive) | 2.25 µM (inactive) | 13.7 µM (inactive)
